In ChEMBL document CHEMBL3885881, “DrugMatrix”:

Species on record: Rattus norvegicus
Assay: DrugMatrix - Regimen: Daily Repeat
Format: toxicity, organism-based, Sprague-Dawley
Design: regimen Daily Repeat, gender Male, age 6-8 weeks
Details: in vivo, iv, vehicle 100 % SALINE; for EOSINOPHIL / ERYTHROCYTE COUNT / HEMATOCRIT / HEMOGLOBIN / LEUKOCYTE COUNT / LYMPHOCYTE / MEAN CORPUSCULAR HEMOGLOBIN / MEAN CORPUSCULAR HEMOGLOBIN CONCENTRATION / MEAN CORPUSCULAR VOLUME / MONOCYTE / NEUTROPHIL / NUCLEATED RED BLOOD CELLS / PLATELET COUNT / ABSOLUTE BASOPHIL / ABSOLUTE EOSINOPHIL / ABSOLUTE LYMPHOCYTE / ABSOLUTE MONOCYTE / ABSOLUTE SEGMENTED NEUTROPHIL / BASOPHIL: tissue Blood; for ALANINE AMINOTRANSFERASE / ALBUMIN / ALKALINE PHOSPHATASE / ASPARTATE AMINOTRANSFERASE / BLOOD UREA NITROGEN / CARBON DIOXIDE / CHLORIDE / CHOLESTEROL / CREATINE PHOSPHOKINASE / CREATININE / GLUCOSE / LACTATE DEHYDROGENASE / LIPASE / PHOSPHORUS / POTASSIUM / SODIUM / TOTAL BILIRUBIN / TOTAL PROTEIN / URIC ACID: tissue Plasma
[1] = 0 mg/kg, 72 h, dose level Control, time 3 day
[2] = 0 mg/kg, 120 h, dose level Control, time 5 day
[3] = 20 mg/kg, 72 h, dose level Low, time 3 day
[4] = 20 mg/kg, 120 h, dose level Low, time 5 day

## NCC[C@H](O)C(=O)N[C@@H]1C[C@H](N)[C@@H](O[C@H]2O[C@H](CN)[C@@H](O)[C@H](O)[C@H]2O)[C@H](O)[C@H]1O[C@H]1O[C@H](CO)[C@@H](O)[C@H](N)[C@H]1O [AMIKACIN]
[1]
  EOSINOPHIL: 0%
  ERYTHROCYTE COUNT: 5.38 x10E6/uL
  HEMATOCRIT: 33.67%
  HEMOGLOBIN: 12.88 G/DL
  LEUKOCYTE COUNT: 8.37 x10E3/uL
  LYMPHOCYTE: 91.17%
  MEAN CORPUSCULAR HEMOGLOBIN: 23.95 pg
  MEAN CORPUSCULAR HEMOGLOBIN CONCENTRATION: 38.23 G/DL
  MEAN CORPUSCULAR VOLUME: 62.6 fL
  MONOCYTE: 0.83%
  NEUTROPHIL: 8%
  NUCLEATED RED BLOOD CELLS: 0.17 /100WBC
  PLATELET COUNT: 865 x10E3/uL
  ALANINE AMINOTRANSFERASE: 51.67 u/L
  ALBUMIN: 3.97 G/DL
  ALKALINE PHOSPHATASE: 351.17 u/L
  ASPARTATE AMINOTRANSFERASE: 82.33 u/L
  BLOOD UREA NITROGEN: 15.17 mg/dL
  CARBON DIOXIDE: 34.5 mmol/L
  CHLORIDE: 100 MEQ/L
  CHOLESTEROL: 80.33 mg/dL
  CREATINE PHOSPHOKINASE: 316.5 u/L
  CREATININE: 0.17 mg/dL
  GLUCOSE: 149.17 mg/dL
  LACTATE DEHYDROGENASE: 105.67 u/L
  LIPASE: 9.5 u/L
  PHOSPHORUS: 10.87 mg/dL
  POTASSIUM: 5.47 MEQ/L
  SODIUM: 144.2 MEQ/L
  TOTAL BILIRUBIN: 0.2 mg/dL
  TOTAL PROTEIN: 5.83 G/DL
  URIC ACID: 0.83 mg/dL
[2]
  ABSOLUTE BASOPHIL: 0 CELLS/uL
  ABSOLUTE EOSINOPHIL: 0 CELLS/uL
  ABSOLUTE LYMPHOCYTE: 6333.5 CELLS/uL
  ABSOLUTE MONOCYTE: 38.83 CELLS/uL
  ABSOLUTE SEGMENTED NEUTROPHIL: 661 CELLS/uL
  BASOPHIL: 0%
  EOSINOPHIL: 0%
  ERYTHROCYTE COUNT: 5.44 x10E6/uL
  HEMATOCRIT: 34.17%
  HEMOGLOBIN: 13.22 G/DL
  LEUKOCYTE COUNT: 7.03 x10E3/uL
  LYMPHOCYTE: 90.17%
  MEAN CORPUSCULAR HEMOGLOBIN: 24.38 pg
  MEAN CORPUSCULAR HEMOGLOBIN CONCENTRATION: 38.7 G/DL
  MEAN CORPUSCULAR VOLUME: 62.95 fL
  MONOCYTE: 0.5%
  NEUTROPHIL: 9.33%
  NUCLEATED RED BLOOD CELLS: 0 /100WBC
  PLATELET COUNT: 924.33 x10E3/uL
  ALANINE AMINOTRANSFERASE: 52.5 u/L
  ALBUMIN: 3.97 G/DL
  ALKALINE PHOSPHATASE: 364.83 u/L
  ASPARTATE AMINOTRANSFERASE: 82.5 u/L
  BLOOD UREA NITROGEN: 17 mg/dL
  CARBON DIOXIDE: 32.33 mmol/L
  CHLORIDE: 99.6 MEQ/L
  CHOLESTEROL: 75.83 mg/dL
  CREATINE PHOSPHOKINASE: 419 u/L
  CREATININE: 0.21 mg/dL
  GLUCOSE: 155 mg/dL
  LACTATE DEHYDROGENASE: 111.5 u/L
  LIPASE: 11.33 u/L
  PHOSPHORUS: 10.32 mg/dL
  POTASSIUM: 5.37 MEQ/L
  SODIUM: 144.64 MEQ/L
  TOTAL BILIRUBIN: 0.18 mg/dL
  TOTAL PROTEIN: 5.98 G/DL
  URIC ACID: 0.62 mg/dL
[3]
  ABSOLUTE BASOPHIL: 0 CELLS/uL
  ABSOLUTE EOSINOPHIL: 0 CELLS/uL
  ABSOLUTE LYMPHOCYTE: 8480.67 CELLS/uL
  ABSOLUTE MONOCYTE: 225.67 CELLS/uL
  ABSOLUTE SEGMENTED NEUTROPHIL: 993.67 CELLS/uL
  BASOPHIL: 0%
  EOSINOPHIL: 0%
  ERYTHROCYTE COUNT: 5.64 x10E6/uL
  HEMATOCRIT: 34.43%
  HEMOGLOBIN: 13 G/DL
  LEUKOCYTE COUNT: 9.7 x10E3/uL
  LYMPHOCYTE: 88%
  MEAN CORPUSCULAR HEMOGLOBIN: 23.03 pg
  MEAN CORPUSCULAR HEMOGLOBIN CONCENTRATION: 37.77 G/DL
  MEAN CORPUSCULAR VOLUME: 61 fL
  MONOCYTE: 2.33%
  NEUTROPHIL: 9.67%
  NUCLEATED RED BLOOD CELLS: 0.33 /100WBC
  PLATELET COUNT: 903.33 x10E3/uL
  ALANINE AMINOTRANSFERASE: 53.67 u/L
  ALBUMIN: 4.13 G/DL
  ALKALINE PHOSPHATASE: 308.67 u/L
  ASPARTATE AMINOTRANSFERASE: 82.33 u/L
  BLOOD UREA NITROGEN: 14 mg/dL
  CARBON DIOXIDE: 35.67 mmol/L
  CHLORIDE: 99 MEQ/L
  CHOLESTEROL: 77.33 mg/dL
  CREATINE PHOSPHOKINASE: 320 u/L
  CREATININE: 0.17 mg/dL
  GLUCOSE: 145.67 mg/dL
  LACTATE DEHYDROGENASE: 98 u/L
  LIPASE: 9.33 u/L
  PHOSPHORUS: 11.1 mg/dL
  POTASSIUM: 6.07 MEQ/L
  SODIUM: 144.47 MEQ/L
  TOTAL BILIRUBIN: 0.2 mg/dL
  TOTAL PROTEIN: 6.03 G/DL
  URIC ACID: 0.9 mg/dL
[4]
  ABSOLUTE BASOPHIL: 0 CELLS/uL
  ABSOLUTE EOSINOPHIL: 0 CELLS/uL
  ABSOLUTE LYMPHOCYTE: 3175.67 CELLS/uL
